The target in test [1] is T1, α-Glucosidase enzyme (E.C. 3.2.1.20) (Saccharomyces cerevisiae, UniProt P53341).
T1 construct: purchased Sigma-Aldrich G0660-750UN
As to the kind of experiment: biochemical. The method, then:
(§1) α-Glucosidase enzyme (E.C. 3.2.1.20) from Saccharomyces cerevisiae were purchased from Sigma-Aldrich (Darmstadt, Hesse, Germany) with product number of G0660-750UN and their inhibition assay was carried out by using 0.1 M phosphate buffer (pH 6.8) solution at 37 °C. […] For the kinetics studies, different concentrations (0.1, 0.2, 0.4 and 0.8 mM) of p-nitrophenyl-α-D-glucopyranoside (substrate) were used. In control the tested compounds were replaced with DMSO-d6 (7.5% final). […] Three time the experiment was repeated having triplicate of each samples. The % inhibition was calculated by using the following formula:% Inhibition = 100 − (OD test well/OD control) ×100 (OD = Optical density)

The target of test [2] is T2, α-glucosidase enzyme (Saccharomyces cerevisiae, UniProt P53341).
T2 construct: purchased Sigma-Aldrich G0660-750UN
T2 sequence (P53341 whole entry): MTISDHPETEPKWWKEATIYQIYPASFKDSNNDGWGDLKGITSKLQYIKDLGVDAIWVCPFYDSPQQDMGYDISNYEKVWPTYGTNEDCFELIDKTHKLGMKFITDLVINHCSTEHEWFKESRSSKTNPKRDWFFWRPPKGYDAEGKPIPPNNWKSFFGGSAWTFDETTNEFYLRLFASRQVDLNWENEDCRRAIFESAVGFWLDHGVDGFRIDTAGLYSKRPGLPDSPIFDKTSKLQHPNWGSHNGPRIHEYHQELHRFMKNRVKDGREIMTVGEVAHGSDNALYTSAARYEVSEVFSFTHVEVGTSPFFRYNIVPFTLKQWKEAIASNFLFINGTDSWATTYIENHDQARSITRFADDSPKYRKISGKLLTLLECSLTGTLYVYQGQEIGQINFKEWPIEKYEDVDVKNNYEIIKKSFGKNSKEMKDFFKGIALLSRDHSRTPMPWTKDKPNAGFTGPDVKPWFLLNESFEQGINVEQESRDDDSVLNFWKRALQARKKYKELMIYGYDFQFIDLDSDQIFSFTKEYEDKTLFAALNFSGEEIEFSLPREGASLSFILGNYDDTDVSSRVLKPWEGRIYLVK
The experiment in a line: Kinetics studies on α-glucosidase (Lineweaver–Burk, secondary replot, Dixon plot). The class given is biochemical. The conditions noted are these: for Type of Inhibition: Lineweaver–Burk plots. The method, then: as §1
The type of inhibition was determined by Lineweaver–Burk plots, the reciprocal of the rate of the reaction was plotted against the reciprocal of substrate concentrations to monitor the effect of inhibitor on both Km and Vmax. […] In non-competitive inhibition, the Vmax of enzyme decreased, while Km are not affected. […] The secondary replots of Lineweaver–Burk plots were used to determine the Ki values.

Test [3] has as its target T1, α-Glucosidase enzyme (E.C. 3.2.1.20). The note with it: the previous investigation; acetyl group at C-3 position; cited from earlier work.
Test [4] concerns the target T2, α-glucosidase enzyme. Set-up: method as in PMID 29030193. The note with it: cited from earlier work.
Setting [5] is: pH 6.8, 37 °C, substrate p-nitrophenyl-α-D-glucopyranoside 0.7 mM, NA = Not active, read-out: IC50 = µM ± SEM.
Setting [6] is: substrate 0.1, 0.2, 0.4 and 0.8 mM, read-out: Ki = µM ± SEM.

Each structure is given as a SMILES string. Like-named read-outs stand apart in the source and are kept apart here. Where only a bound is given, the exact number is not on record here.

These results are taken from article PMC7278020, “Triterpenic Acids as Non-Competitive α-Glucosidase Inhibitors from Boswellia elongata with Structure-Activity Relationship: In Vitro and In Silico Studies” (Biomolecules, 2020).

Broadly, the inhibition is the change of the read-out against control, counted positive when it falls. A higher inhibition goes with a response far below the control. As a reminder, the IC50 is the concentration that gives 50% inhibition. The term Ki denotes a measure of affinity in units of concentration, obtained from inhibition or displacement.

T1 sequence (P53341 whole entry): as above

Consider `CC(=O)OC1CCC2(C)C3=C(CCC2C1(C)C)C1(C)CCC(C(C)CCC=C(C)C)C1(C)CC3` (stereo not drawn) [Compound 1, 5α-tirucalla-8,24-dien-3α-acetate], for which, in test [1], the inhibition at 1000 µM was below 50%. Besides, in test [1] (pH 6.8, 37 °C, substrate p-nitrophenyl-α-D-glucopyranoside 0.7 mM, NA = Not active), the “IC50 = µM ± SEM” value is “inactive”.

For the molecule `CC(C)=CCC[C@H](C)C1CC[C@]2(C)C3=C(CC[C@@]12C)[C@@]1(C)CC[C@@H](O)C(C)(C)C1CC3` (stereo partly drawn) [Compound 2, 5α-Tirucalla-8,24-dien-3α-ol], in test [1], the inhibition at 1000 µM was below 50%.

In the case of `CC(=O)O[C@@H]1CC[C@]2(C)C3=C(CCC2C1(C)C)[C@@]1(C)CCC([C@H](CCC=C(C)C)C(=O)O)[C@]1(C)CC3` (stereo partly drawn) [Compound 3, 3α-Acetoxytirucall-8,24-dien-21-oic acid], the IC50 in test [1] (setting [5]) came to 56.8 ± 1.3 µM. For the same molecule, the “Type of Inhibition” value on α-glucosidase enzyme [2] is “Non-competitive”. Also, the Ki on α-glucosidase enzyme [2] (setting [6]) is 51.1 ± 0.63 µM.

In test [1], `CC(=O)O[C@@H]1CC[C@]2(C)C3=CC=C4C5[C@@H](C)[C@H](C)CC[C@]5(C)CC[C@@]4(C)[C@]3(C)CCC2[C@@]1(C)C(=O)O` (stereo partly drawn) [Compound 4, 3-O-Acetyl-9,11-dehydro-β-boswellic acid] showed an IC50 of 9.9 ± 0.48 µM. In addition, the “times more active than the standard inhibitor acarbose” value in test [1] (from IC50 values) came to 94 times. Moreover, on α-glucosidase enzyme [2], the inhibition constant (Ki) worked out at 7.05 ± 0.75 µM and the “Type of Inhibition” value is reported as “Non-competitive”.

For the molecule `C[C@@H]1CC[C@]2(C)CC[C@]3(C)C(=CC=C4[C@@]5(C)CC[C@@H](O)[C@](C)(C(=O)O)C5CC[C@]43C)C2[C@H]1C` (stereo partly drawn) [Compound 5, 9,11-Dehydro-β-boswellic acid], the IC50 in test [1] (setting [5]) was 20.9 ± 0.05 µM. In addition, the “Type of Inhibition” value on α-glucosidase enzyme [2] is given as “Non-competitive”. For the same molecule, the Ki on α-glucosidase enzyme [2] (setting [6]) came out at 15.3 ± 0.54 µM.

On to `CC(=O)O[C@@H]1CC[C@@]2(C)[C@@H](CC[C@]3(C)[C@@H]2CC=C2[C@@H]4[C@@H](C)[C@H](C)CC[C@]4(C)CC[C@]23C)[C@@]1(C)C(=O)O` [Compound 6, 3-Acetyl-β-boswellic acid], for which the “glucosidase inhibition (in words)” value in test [3] is “most promising glucosidase inhibitors”.

Consider `CC(=O)O[C@@H]1CC[C@@]2(C)[C@@H](CC[C@]3(C)[C@@H]2C(=O)C=C2[C@@H]4[C@@H](C)[C@H](C)CC[C@]4(C)CC[C@]23C)[C@@]1(C)C(=O)O` [Compound 7, 3-Acetyl 11-keto-β-boswellic acid], for which the “glucosidase inhibition (in words)” value in test [3] is given as “most promising glucosidase inhibitors”.

In test [1], `CO[C@@H]1C=C2C3[C@@H](C)[C@H](C)CC[C@]3(C)CC[C@@]2(C)[C@]2(C)CCC3[C@](C)(CC[C@@H](O)[C@]3(C)C(=O)O)C12` (stereo partly drawn) [Compound 11, 11α-methoxy-β-boswellic acid] showed a half-maximal inhibitory concentration (IC50) of 14.9 ± 1.31 µM. In addition, on α-glucosidase enzyme [2], the Ki is 8.05 ± 0.38 µM and the “Type of Inhibition” value is reported as “Non-competitive”.

For `CC(=O)O[C@@H]1CC[C@@]2(C)[C@@H](CC[C@]3(C)[C@@H]2CC=C2[C@@H]4CC(C)(C)CC[C@]4(C)CC[C@]23C)[C@@]1(C)C(=O)O` [Compound 12, 3-Acetyl-α-boswellic acid], the “glucosidase inhibition (in words)” value in test [3] is on record as “most promising glucosidase inhibitors”.

Turning to `C[C@@H]1CC[C@H]2[C@@H]1C1C(CC[C@]2(C)O)C1(C)C` (some centres unmarked) [Compound 19, Viridiflorol], the inhibition at 1000 µM in test [1] was below 50%.

In test [1], `C/C1=C\CC/C(C)=C/C[C@H](C(C)(C)O)CC/C(C)=C/CC1` [Compound 20, Iso-serratol] came in with an inhibition at 1000 µM below 50%.

Regarding `CC1(C)CC[C@]2(C(=O)O)CC[C@]3(C)C(=CC[C@@H]4[C@@]5(C)CC[C@H](O)C(C)(C)[C@@H]5CC[C@]43C)[C@@H]2C1` [oleanolic acid], the “Type of inhibition of α-glucosidase (literature)” value at α-glucosidase enzyme [4] was “non-competitive inhibitors”.

`C[C@H]1[C@H](C)CC[C@]2(C(=O)O)CC[C@]3(C)C(=CC[C@@H]4[C@@]5(C)CC[C@H](O)C(C)(C)[C@@H]5CC[C@]43C)[C@H]12` [ursolic acid]: on α-glucosidase enzyme [4], the “Type of inhibition of α-glucosidase (literature)” value was “non-competitive inhibitors”.
